Paper PMC9785280, “Synthesis, Antiproliferative Evaluation and QSAR Analysis of Novel Halogen- and Amidino-Substituted Benzothiazoles and Benzimidazoles” (International Journal of Molecular Sciences, 2022)
Like-named read-outs stand apart in the source and are kept apart here.

Key:
[1] = system: HeLa (cervical adenocarcinoma) cells; test: MTT antiproliferative assay, HeLa; type: cell-based; settings: Homo sapiens, 72 h, mean ± SD of three independent experiments
Procedure, shortened: (§1)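 GI50 values derive from least-squares fits of log concentration against percent inhibition. Each fit uses MTT absorbance (595 nm) recorded after 72 h treatment at 10^−7 to 10^−4 M, relative to untreated cells.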

[2] = system: CaCo-2 (colon adenocarcinoma) cells; test: MTT antiproliferative assay, CaCo-2; type: cell-based, human; settings: for IC50: Homo sapiens, Caco-2, 72 h, MTT, mean ± SD of three independent experiments; for SI (MDCK) CaCo-2: SI = IC50 MDCK1 / IC50 CaCo-2
Procedure, shortened: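 CaCo-2 cells, plated at 2 × 10^4 cells/mL in DMEM with 10 % FBS at 37 °C/5% CO2, were treated 24 h later with five 10-fold dilutions (10^−7 to 10^−4 M) for 72 h. Viability was measured by MTT (4 h, formazan dissolved in DMSO, OD 595 nm) against background and untreated controls. GI50 came from log-concentration versus percent-inhibition fits.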

[3] = system: HuT78 (T-cell lymphoma) cells; test: MTT antiproliferative assay, HuT78; type: cell-based, human; settings: for IC50: 72 h, MTT, mean ± SD of three independent experiments; for SI (MDCK) HuT78: SI = IC50 MDCK1 / IC50 HuT78; for SI (BJ) HuT78: SI = IC50 BJ / IC50 HuT78
Procedure, shortened: as §1

[4] = system: SW620 (colorectal adenocarcinoma, metastatic) cells; test: MTT antiproliferative assay, SW620; type: cell-based, human; settings: for IC50: Homo sapiens, SW-620
Procedure: (§2) The growth inhibition activity was assessed according to the slightly modified procedure performed at the National Cancer Institute, Developmental Therapeutics Program.
(§3) Examined compounds were dissolved in DMSO (1 × 10^−2 M). The experiments were carried out on seven human tumor cell lines and two normal cell lines. The following cell lines were used: HeLa (human cervical adenocarcinoma; purchased from ATCC), CaCo-2 (human colorectal adenocarcinoma), HuT78 (T-cell lymphoma), THP-1 (acute monocytic leukemia), SW620 (colorectal adenocarcinoma, metastatic), MDA-MB-231 (human breast adenocarcinoma), HL60 (promyelocytic leukemia cell line), foreskin fibroblast cells (BJ) and MDCK1 (Madine–Darby canine kidney fibroblast like cells). MDCK1 cells were used between 24 and 26 passages.
(§4) Adherent cells were cultured in the Dulbecco’s modified Eagle medium—DMEM (Gibco, EU) supplemented with 10 % heat-inactivated fetal bovine serum (FBS, Gibco, EU), 2 mM glutamine, and 100 U/0.1 mg penicillin/streptomycin. Cells on suspension were cultured in RPMI 1640 (Gibco, EU) medium supplemented with 10 % FBS (Gibco, EU), 2 mM glutamine, 1 mM sodium pyruvate, 10 mM HEPES. Cells were grown in humidified atmosphere under the conditions of 37 °C/5% of CO2 gas in the CO2 incubator (IGO 150 CELLlife^TM, JOUAN, Thermo Fisher Scientific, Waltham, MA, USA). A erythrosin B (Sigma-Aldrich, St. Louis, MO, USA) dye exclusion method was used to assess cell viability before plating.
(§5) Adherent cells (HeLa, CaCo-2, MCF-7 and MDCK-1) were plated in 96-well flat bottom plates (Greiner, Frickenhausen, Austria) at a concentration of 2 × 10^4 cells/mL. Suspension cells (THP-1 and HuT78) were plated in 96-well microtiter plates (Sarstead, Newton, USA) at a concentration of 1 × 10^5 cells/mL. Twenty-four hours later, cells were treated with test agents in […] 10-fold dilutions ([…] to 10^−4 M) and incubated for further 72 h. Working dilutions were freshly prepared on the day of testing. The solvent was also tested for eventual inhibitory activity by adjusting its concentration to be the same as in working concentrations. After 72 h of incubation, the cell growth rate was evaluated by performing the MTT assay, which detects dehydrogenase activity in viable cells. For this purpose, upon completion of the incubation period, growth medium was discarded and 50 μL of MTT was added to each well at a concentration of 5 mg/mL. After four hours of incubation at 37 °C, water insoluble MTT-formazan crystals were dissolved in 150 μL of dimethyl-sulfoxide (DMSO) for adherent cells, and in 10 % SDS with 0.01 M/L HCl for cells grown in suspension. The absorbance (OD, optical density) was measured on a microplate reader (iMark, BIO RAD, Hercules, CA, USA) at 595 nm.
(§6) Percent of life cells was calculated as follows: % = OD (sample)–OD (background)/OD (control)–OD (background) × 100.
(§7) Optical density (OD) of background for adherent cells is the OD of MTT solution and DMSO; OD (background) for suspension cells is OD of the culture medium with MTT and 10% SDS with 0.01 M/L HCl; OD (control) is the OD of the cells growth without tested compounds.
(§8) Calculation of GI50 value curves and QC analysis is performed by using the Excel tools and GraphPadPrism software (La Jolla, CA), v. 5.03. Briefly, individual concentration effect curves are generated by plotting the logarithm of the concentration of tested compounds(X) vs. corresponding percent inhibition values (Y) using least squares fit. The best fit GI50 values are calculated using Log (inhibitor) versus normalized response—Variable slope equation, where Y Ľ 100/(1 ţ 10 ((LogIC50 _ X) * HillSlope)). QC criteria parameters (Z0, S:B, R2, HillSlope) were checked for every GI50 curve.

[5] = system: MDA-MB-231 (human breast adenocarcinoma) cells; test: MTT antiproliferative assay, MDA-MB-231; type: cell-based; settings: for IC50: Homo sapiens, MDA-MB-231, 72 h, MTT, mean ± SD of three independent experiments; for SI (MDCK) MDA-MB-231: SI = IC50 MDCK1 / IC50 MDA-MB-231
Procedure: as §2, §3, §4, §5, §6, §7, §8

[6] = system: HL60 (promyelocytic leukemia) cells; test: MTT antiproliferative assay, HL60; type: cell-based, human; settings: for IC50: Homo sapiens, HL-60, 72 h, MTT, mean ± SD of three independent experiments; for SI (BJ) HL60: SI = IC50 BJ / IC50 HL60; for SI (MDCK) HL60: SI = IC50 MDCK1 / IC50 HL60
Procedure: as §2, §3, §4, §5, §6, §7, §8

[7] = system: THP1 (human monocytic leukemia) cells; test: MTT antiproliferative assay, THP1; type: cell-based; settings: for IC50: Homo sapiens, THP-1, 72 h, MTT, mean ± SD of three independent experiments; for SI (BJ) THP1: SI = IC50 BJ / IC50 THP1; for SI (MDCK) THP1: SI = IC50 MDCK1 / IC50 THP1
Procedure: as §2, §3, §4, §5, §6, §7, §8

[8] = system: MDCK1 (Madin–Darby canine kidney) cells; test: MTT antiproliferative assay, non-tumor MDCK1 cells; type: cell-based; settings: Canis lupus familiaris, MDCK1, 72 h, mean ± SD of three independent experiments, normal cells
Procedure, shortened: as §1

human fibroblasts (BJ) = test: MTT antiproliferative assay, normal BJ fibroblasts; type: cell-based; settings: for IC50: Homo sapiens, Fibroblast, 72 h, MTT, mean ± SD of three independent experiments, normal cells
Procedure, shortened: as §1

[9] = 72 h, MTT, mean ± SD of three independent experiments, read-out: IC50 (µM) SW620

SMILES	IC50 [1] [µM]	IC50 [2] [µM]	IC50 ([3]; Homo sapiens, HuT78, 72 h) [µM]	SI (MDCK) HuT78 [3]	IC50 [4, 9] [µM]	IC50 [5] [µM]	IC50 [6] [µM]	IC50 [7] [µM]	IC50 [8] [µM]	IC50 (human fibroblasts (BJ)) [µM]	SI (BJ) HuT78 [3]	SI (BJ) HL60 [6]	SI (MDCK) HL60 [6]	SI (MDCK) THP1 [7]	also measured
Cl.c1cc(-c2nc3ccc(C4=NCCN4)cc3s2)ccc1OCc1c[nH]nn1 [36a, 2-(4-((1H-1,2,3-triazol-4-yl)methoxy)phenyl)-6-(4,5-dihydro-1H-imidazol-2-yl)benzothiazole hydrochloride]	62.6 ± 22	24.8 ± 9.2	4.4 ± 3.9	7.23	5.6 ± 1.2	33 ± 4.9	18.8 ± 1.1	20.4 ± 3.3	–	–	–	–	–	–	IC50 ([4]; span over SW620, MDA-MB-231, HL60, THP1, read-out: IC50 values on additional set of tumor cells): 5.6 to 33 µM; melting point: 218 to 221 °C
COc1cc(-c2nc3ccc(C4=NCCN4)cc3s2)ccc1OCc1c[nH]nn1.Cl [36c, 2-(3-Methoxy-4-((1H-1,2,3-triazol-4-yl)methoxy)phenyl)-6-(4,5-dihydro-1H-imidazol-2-yl)benzothiazole hydrochloride]	> 100	> 100	1.6 ± 0.8	62.5	> 100	> 100	> 100	> 100	> 100	> 100	–	–	–	–	–
O=C(COc1ccc(-c2nc3ccc(C4=NCCCN4)cc3s2)cc1F)c1ccccc1 [38b]	22.1 ± 1.2	19.4 ± 4.7	4 ± 0.9	6.65	30.5 ± 9.2	42.4 ± 7.2	15.8 ± 2.3	14.7 ± 4.1	26.6 ± 3.1	32.2 ± 2.8	8.05	2.04	1.68	1.8	SI (BJ) CaCo-2 ([2]; SI = IC50 BJ / IC50 CaCo-2): 1.66; SI (MDCK) CaCo-2 [2]: 1.37; SI (BJ) THP1 [7]: 2.19
COc1cc(-c2nc3ccc(C4=NCCCN4)cc3s2)ccc1OCc1ccccn1 [39c]	> 100	34.7 ± 2.8	12.7 ± 0.9	7.87	34.2 ± 7.1	38.5 ± 1.6	31.1 ± 3	69.7 ± 6.3	> 100	38.1 ± 1.4	3	–	3.22	1.43	SI (MDCK) CaCo-2 [2]: 2.87; SI (MDCK) SW620 ([4]; SI = IC50 MDCK1 / IC50 SW620): 2.92; SI (MDCK) MDA-MB-231 [5]: 2.6
O=C(COc1ccc(-c2nc3ccc(C4=NCCCN4)cc3[nH]2)cc1)c1ccccc1 [42a]	> 100	> 100	7 ± 5.2	14.29	> 100	76.3 ± 11.8	33.2 ± 1.8	44.5 ± 5.3	> 100	> 100	14.29	3.01	3.01	2.25	SI (BJ) MDA-MB-231 ([5]; SI = IC50 BJ / IC50 MDA-MB-231): 1.31; SI (MDCK) MDA-MB-231 [5]: 1.31; SI (BJ) THP1 [7]: 2.25
O=C(COc1ccc(-c2nc3ccc(C4=NCCCN4)cc3[nH]2)cc1F)c1ccccc1 [42b]	> 100	> 100	11.9 ± 3.6	5.66	92.7 ± 34.3	84.5 ± 18.3	44.4 ± 12.6	> 100	67.3 ± 12.7	47 ± 3.3	3.95	–	1.51	–	–
c1ccc(COc2ccc(-c3nc4ccc(C5=NCCCN5)cc4[nH]3)cc2)nc1 [43a]	> 100	> 100	28.6 ± 3.9	3.5	> 100	> 100	40.4 ± 12	29.7 ± 8.6	> 100	33 ± 20.3	–	–	2.48	3.37	–
COc1cc(-c2nc3ccc(C4=NCCCN4)cc3[nH]2)ccc1OCc1cn(CCN2CCOCC2)nn1 [46c]	> 100	> 100	4.1	19.6	> 100	> 100	50.7 ± 20.5	> 100	> 100	> 100	–	1.97	1.97	–	toxicity to normal BJ cells (in words) (human fibroblasts (BJ)): not toxic; IC50 [3]: 5.1 ± 4.2 µM
